Data published in PMC3988029, “A Trisubstituted Benzimidazole Cell Division Inhibitor with Efficacy against Mycobacterium tuberculosis” (PLoS ONE, 2014).
In brackets after ≈: the same amount, converted by molar mass. Several values for one entry are separate records, joined by “and”; a condition that tells them apart may be missing. Equal values may be shown once. Entries after “also recorded” stand apart in the source; their conditions may differ. Read-outs that look alike come from different tables or passages of the source.

What was measured:
[1] = test system: M. tuberculosis strain Erdman; assay: Modified rapid (acute) murine model of infection; assay type: in vivo, Mycobacterium tuberculosis
[2] = 100 ng/mL
Procedure: (§1) Blood was collected from animals using lithium heparin as anticoagulant, in the Animal Research & Welfare Domain at Disposition, Safety & Animal Research Montpellier (371 rue du Pr. J. Blayac, 34184 Montpellier Cedex 04, France) or vendors such as Charles River. Human plasma using lithium heparin as anticoagulant was provided by the EFS (Etablissement Français du Sang) of Montpellier, France. Plasma was spiked with the compound in order to obtain a final drug concentration of 100 ng/mL (expressed as non-salified compound). The spiked plasma (dedicated to C1h and C4h) was then incubated at 37°C for 1 h and 4 h. Plasma samples were analyzed by LC-MS/MS following protein precipitation. The limit of quantification for compounds was 10 ng/mL. Chromatographic conditions for LC analysis: 10 µL of the sample was injected to Luna Phenomenex C8 (50 mm×2.0 mm, 3 µm), Solvent A: ammonium acetate (0.15 g)/formic acid (2 mL)/HPLC water up to 1000 mL. […] MS/MS condition used for detection: Finnigan TSQ Quantum disco instrument, Excalibur version 2.0 acquisition system, ESI positive ion ionization mode. The mean percent of difference between C1h or C4h and C0 concentrations was calculated.
M%D (%) = 100 × [(C1h or C4h)–C0]/C0
(§2) The compounds were considered as stable if the mean percent of difference between C4h and C0 concentrations was less than 20%.

M. tuberculosis H37Rv [3] = conditions: lead selection from SAR studies; cited from earlier work
[4] = 5 µM, 1 mg/mL microsomal protein, NADPH, 20 min
Procedure: (§3) The flavin-containing monooxygenases (FMO)-dependent reactions were run in the presence of bovine serum albumin (BSA, 0.1%) for the duration of 0 and 20 min (with or without microsomal proteins and/or cofactors). […] Following protein precipitation with acetonitrile and their removal by centrifugation, supernatant fluids were analyzed by LC/MS-MS.
(§4) Thermo Finnigan TSQ Quantum Ultra instrument, ESI positive ion ionization mode. Each compound is studied in duplicates. Results are expressed in percentage of lability (or total metabolism).
(§5) Total metabolism = [1– (UC1 Peak Area)/(UC2 Peak Area)] × 100.
(§6) UCn = Unchanged Compound in condition n;
(§7) n = 1: incubation in the presence of NADPH cofactor after T = 20 min.
(§8) n = 2: incubation without cofactor at T = 0 min.

[5] = 5 µM, 1 mg/mL microsomal protein, NADPH, 20 min; remark: listed apart in the source
Procedure: as §3, §4, §5, §6, §7, §8

[6] = test system: M. tuberculosis clinical isolates; conditions: determined and reported; cited from earlier work
M. tuberculosis H37Rv [7] = assay: Microplate Alamar Blue assay (MABA) MIC; assay type: cell-based; conditions: Mycobacterium tuberculosis
M. tuberculosis TN587 = assay: Microplate Alamar Blue assay (MABA) MIC; assay type: cell-based; conditions: Mycobacterium tuberculosis
M. tuberculosis NHN382 = assay: Microplate Alamar Blue assay (MABA) MIC; assay type: cell-based; conditions: Mycobacterium tuberculosis
M. tuberculosis W210 = assay: Microplate Alamar Blue assay (MABA) MIC; assay type: cell-based; conditions: Mycobacterium tuberculosis
M. tuberculosis NHN20 = assay: Microplate Alamar Blue assay (MABA) MIC; assay type: cell-based; conditions: Mycobacterium tuberculosis
Mtb FtsZ [8] = target: T1, Mtb FtsZ (Mycobacterium tuberculosis, UniProt P9WN95); assay: Transmission electron microscopy of FtsZ polymerization; assay type: biochemical, M. tuberculosis; conditions: FtsZ 5 µM, GTP 25 µM
M. tuberculosis H37Rv [9] = assay: Time-dose growth (OD600 nm) and kill (CFU) curves; assay type: cell-based, Mycobacterium tuberculosis
[10] = 100 ng/mL; remark: listed apart in the source
Procedure: as §1
M%D (%) = 100 × [(C1h or C4h)–C0]/C0
as §2

Mtb FtsZ [11] = target: T1, Mtb FtsZ; conditions: earlier work of the authors; no reference given; cited from earlier work

T1 sequence (P9WN95 whole entry, looked up): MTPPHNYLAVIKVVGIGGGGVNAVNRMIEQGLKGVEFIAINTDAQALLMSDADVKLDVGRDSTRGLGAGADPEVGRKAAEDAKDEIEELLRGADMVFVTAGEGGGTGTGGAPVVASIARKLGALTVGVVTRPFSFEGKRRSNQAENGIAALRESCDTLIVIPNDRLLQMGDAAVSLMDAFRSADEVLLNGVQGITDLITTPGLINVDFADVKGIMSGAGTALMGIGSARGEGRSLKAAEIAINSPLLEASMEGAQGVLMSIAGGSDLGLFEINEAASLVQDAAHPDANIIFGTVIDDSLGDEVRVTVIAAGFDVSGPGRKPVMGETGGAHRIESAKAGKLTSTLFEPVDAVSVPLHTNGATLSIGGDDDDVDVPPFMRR

NNC(=O)c1ccncc1 [INH, isoniazid, reference compound]
CFU counts in the lung and spleen ([1]; IP 20 mg/kg qd, control drug): below the level of detection

CCCCOC(=O)Nc1cc2nc(C3CCCCC3)[nH]c2cc1N(C)C [SB-P17G-C2]
Reduction in the bacterial load in the lungs or spleen ([1]; acute mouse model, data not shown): no significant reduction; also recorded: did not significantly reduce the bacterial load in the lungs or spleen
Plasma Stability (% hydrolysis) Human (4 h) [2]: 6.1%
MIC (M. tuberculosis H37Rv [3]): 0.06 µg/mL (≈ 0.167 µM)
Liver Microsome Lability Human [4]: 90%
Liver Microsome Lability Mouse [5]: 96%
MIC values against clinical isolates [6]: 0.06 to 0.13 µg/mL

CN(C)c1cc2[nH]c(C3CCCCC3)nc2cc1NC(=O)c1ccc(OC(F)(F)F)cc1 [SB-P17G-A20]
MIC (M. tuberculosis H37Rv [7]): 0.16 µg/mL (≈ 0.358 µM)
MIC (M. tuberculosis TN587): 0.16 µg/mL (≈ 0.358 µM)
MIC (M. tuberculosis NHN382): 0.16 µg/mL (≈ 0.358 µM)
MIC (M. tuberculosis W210): 0.16 µg/mL (≈ 0.358 µM)
MIC (M. tuberculosis NHN20): 0.16 µg/mL (≈ 0.358 µM)
Effect on FtsZ polymers (TEM) (Mtb FtsZ [8]; 40 µM compound): the length, density and aggregation was visibly reduced
Effect on FtsZ polymers (TEM) (Mtb FtsZ [8]; 80 µM compound): dispersed FtsZ polymers are observed
Concentration that steadily reduced bacterial viability (M. tuberculosis H37Rv [9]; CFU plating, day 0, 2, 4, 6): 0.08 µg/mL
Killing characteristics (M. tuberculosis H37Rv [9]; growth curves at various concentrations): concentration-dependent inhibitor with sub-MIC inhibitory characteristics
Lowest concentration at which bacterial growth was reduced (M. tuberculosis H37Rv [9]; in some cases): 0.125 X MIC
Reduction in the bacterial load in the lungs ([1]; C57BL/6-Ifngtm1ts mice, 50 mg/kg IP bid, days 5 to 14 post-infection, vs infected controls): 1.73±0.24 log10 CFU
Reduction in the bacterial load in the spleen ([1]; C57BL/6-Ifngtm1ts mice, 50 mg/kg IP bid, days 5 to 14 post-infection, vs infected controls, 50 mg/kg): 2.68 log10 CFU and 2.68±0.48 log10 CFU
Plasma Stability (% hydrolysis) Human (4 h) [2]: 0.1%
MIC (M. tuberculosis H37Rv [3]): 0.16 µg/mL (≈ 0.358 µM)
Plasma Stability (% hydrolysis) Mouse (4 h) [10]: 24.4%
Liver Microsome Lability Human [4]: 39%
Liver Microsome Lability Mouse [5]: 45%

CCCCOC(=O)Nc1cc2nc(C3CCCCC3)[nH]c2cc1N(CC)CC [SB-P3G2]
Inhibition of FtsZ polymerization (Mtb FtsZ [11]): inhibit FtsZ polymerization in a dose dependent manner
